Assay results taken from patent US20210161189A1, “MONOESTER SUGAR DERIVATIVES AS FLAVOR MODIFIERS” (Firmenich SA, priority 2018, published 2021).

What was measured:
Type in all cases: in vivo, human
sensory panel [1] = assay: Sensory panel, orange flavored test composition; settings: 200 ppm in orange flavored test composition, panel score
Protocol: Next, glucose-6-O-octanoate was added to an orange flavored test composition, to result in a final concentration of 200 ppm in the test composition. In parallel, a control composition, comprising orange flavor was also generated. A sensory panel consisting of between 6 to 8 persons compared the overall flavor, sweetness, acidity, bitterness, astringency, off-notes, and long-lastingness of the sweetness of the test composition and the control composition. The results were analyzed using the Duncan comparison test.

sensory panel [2] = assay: Sensory panel, strawberry flavored bottled water (BWAT) containing 7% w/v sucrose; settings: 100 ppm in strawberry BWAT 7% sucrose; panel score
Protocol: Next, glucose-6-O-octanoate was added to a fruit flavored bottled water test composition (strawberry flavored water, containing 7% w/v sucrose), to result in a final concentration of 100 ppm in the test composition.

sensory panel [3] = assay: Sensory panel, energy drink; parameters: scale not given here; settings: panel score
Protocol: (§1) […] In parallel, a control energy drink composition was also generated. A sensory panel consisting of between 6 to 8 persons compared the overall flavor, sweetness, acidity, bitterness, astringency, off-notes, and long-lastingness of the sweetness of the test composition and the control composition. The results were analyzed using the Duncan comparison test.

sensory panel [4] = assay: Sensory panel, lemon flavored alcoholic beverage; parameters: scale not given here; settings: panel score
Protocol: as §1, with “composition, comprising lemon flavored alcoholic beverage” for “energy drink composition”

[5] = 100 ppm in lemon flavored alcoholic beverage
[6] = 200 ppm in lemon flavored alcoholic beverage

`CCCCCCCC(=O)OC[C@@H](O)[C@@H](O)[C@H](O)[C@@H](O)C=O` [glucose-6-O-octanoate] was tested, and the Acidity (sensory panel [1]) was 2.07, the Astringency (sensory panel [1]) was “decreasing” and the Bitterness (sensory panel [1]) was “decreasing the perceived bitterness”. The Long-Lasting (sensory panel [1]) was 0.29, the Off-notes (sensory panel [1]) was 0.14 and the “Overall Flavor” value (sensory panel [1]) was 3. For the same compound, the Sweetness (sensory panel [1]) was 2.79, the Astringency (sensory panel [1]; listed as 71007) was 1 B and the Bitterness (sensory panel [1]; listed as 71007) was 1.07 B. For the same compound, the Astringency (sensory panel [2]) was 0.5, the Long-Lasting (sensory panel [2]) was 0.92 and the Off-notes (sensory panel [2]) was 0.33. For the same compound, the “Overall Flavor” value (sensory panel [2]) was 3, the Sweetness (sensory panel [2]) was 4.08 and the Acidity (sensory panel [3]; 100 ppm in energy drink) was 2.17. For the same compound, the Astringency (sensory panel [3]; 100 ppm in energy drink) was 0.67, the Bitterness (sensory panel [3]; 100 ppm in energy drink) was 0.83 and the Long-Lasting (sensory panel [3]; 100 ppm in energy drink) was 2. For the same compound, the “Overall Flavor” value (sensory panel [3]; 100 ppm in energy drink) was 3.33, the Acidity (sensory panel [3]; 200 ppm in energy drink) was 2.5 and the Astringency (sensory panel [3]; 200 ppm in energy drink) was 0.29. The Bitterness (sensory panel [3]; 200 ppm in energy drink) was 0.93, the Off-notes (sensory panel [3]; 200 ppm in energy drink) was 0.21 and the “Overall Flavor” value (sensory panel [3]; 200 ppm in energy drink) was 3.5. The Acidity (sensory panel [4]; [5]) was 2, the Astringency (sensory panel [4]; [5]) was 1 and the Off-notes (sensory panel [4]; [5]) was 0.25. For the same compound, the “Overall Flavor” value (sensory panel [4]; [5]) was 3.5, the Sweetness (sensory panel [4]; [5]) was 3 and the Acidity (sensory panel [4]; [6]) was 2. It also gave an Astringency (sensory panel [4]; [6]) of 2, a Bitterness (sensory panel [4]; [6]) of 1.1 and a Long-Lasting (sensory panel [4]; [6]) of 1.6. For the same compound, the Off-notes (sensory panel [4]; [6]) was 0.4 and the “Overall Flavor” value (sensory panel [4]; [6]) was 2.3.
